Tests used:
[1] = molecular target: T1, Tyrosine-protein phosphatase non-receptor type 2 (Homo sapiens, UniProt P17706); test: Inhibitory activity tested against T-cell Protein tyrosine phosphatase 2 (TCPTP)
T1 sequence (P17706 whole entry): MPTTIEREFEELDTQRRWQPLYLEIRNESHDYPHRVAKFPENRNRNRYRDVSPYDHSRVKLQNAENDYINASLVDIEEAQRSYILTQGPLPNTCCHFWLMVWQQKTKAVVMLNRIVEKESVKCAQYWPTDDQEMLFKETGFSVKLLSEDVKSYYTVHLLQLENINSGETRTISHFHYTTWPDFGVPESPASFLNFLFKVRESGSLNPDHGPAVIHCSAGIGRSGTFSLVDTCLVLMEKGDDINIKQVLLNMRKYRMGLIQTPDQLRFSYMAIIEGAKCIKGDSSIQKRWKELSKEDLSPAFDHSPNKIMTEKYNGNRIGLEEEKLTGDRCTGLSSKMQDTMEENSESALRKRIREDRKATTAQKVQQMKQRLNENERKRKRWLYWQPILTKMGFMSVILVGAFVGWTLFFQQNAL

[2] = molecular target: T2, Tyrosine-protein phosphatase non-receptor type 1 (Homo sapiens, UniProt P18031); test: Inhibitory activity tested against Protein-tyrosine phosphatase 1B (PTP1B)
T2 sequence (P18031 whole entry): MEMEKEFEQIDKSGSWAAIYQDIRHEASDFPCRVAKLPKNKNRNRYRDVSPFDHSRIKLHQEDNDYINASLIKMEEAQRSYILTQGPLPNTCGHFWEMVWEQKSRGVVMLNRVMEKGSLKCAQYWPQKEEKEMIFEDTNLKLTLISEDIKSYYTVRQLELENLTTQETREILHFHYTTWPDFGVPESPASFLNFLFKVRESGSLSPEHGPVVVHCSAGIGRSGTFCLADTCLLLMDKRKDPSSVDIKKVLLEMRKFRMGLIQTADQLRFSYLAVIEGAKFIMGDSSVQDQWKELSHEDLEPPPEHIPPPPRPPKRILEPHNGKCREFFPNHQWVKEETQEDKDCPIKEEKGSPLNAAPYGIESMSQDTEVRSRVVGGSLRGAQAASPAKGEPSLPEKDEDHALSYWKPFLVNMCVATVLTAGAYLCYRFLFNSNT

[3] = molecular target: T3, Receptor-type tyrosine-protein phosphatase C (Homo sapiens, UniProt P08575); test: Inhibition of common leukocyte antigen CD45 phosphatase
T3 sequence (P08575 whole entry): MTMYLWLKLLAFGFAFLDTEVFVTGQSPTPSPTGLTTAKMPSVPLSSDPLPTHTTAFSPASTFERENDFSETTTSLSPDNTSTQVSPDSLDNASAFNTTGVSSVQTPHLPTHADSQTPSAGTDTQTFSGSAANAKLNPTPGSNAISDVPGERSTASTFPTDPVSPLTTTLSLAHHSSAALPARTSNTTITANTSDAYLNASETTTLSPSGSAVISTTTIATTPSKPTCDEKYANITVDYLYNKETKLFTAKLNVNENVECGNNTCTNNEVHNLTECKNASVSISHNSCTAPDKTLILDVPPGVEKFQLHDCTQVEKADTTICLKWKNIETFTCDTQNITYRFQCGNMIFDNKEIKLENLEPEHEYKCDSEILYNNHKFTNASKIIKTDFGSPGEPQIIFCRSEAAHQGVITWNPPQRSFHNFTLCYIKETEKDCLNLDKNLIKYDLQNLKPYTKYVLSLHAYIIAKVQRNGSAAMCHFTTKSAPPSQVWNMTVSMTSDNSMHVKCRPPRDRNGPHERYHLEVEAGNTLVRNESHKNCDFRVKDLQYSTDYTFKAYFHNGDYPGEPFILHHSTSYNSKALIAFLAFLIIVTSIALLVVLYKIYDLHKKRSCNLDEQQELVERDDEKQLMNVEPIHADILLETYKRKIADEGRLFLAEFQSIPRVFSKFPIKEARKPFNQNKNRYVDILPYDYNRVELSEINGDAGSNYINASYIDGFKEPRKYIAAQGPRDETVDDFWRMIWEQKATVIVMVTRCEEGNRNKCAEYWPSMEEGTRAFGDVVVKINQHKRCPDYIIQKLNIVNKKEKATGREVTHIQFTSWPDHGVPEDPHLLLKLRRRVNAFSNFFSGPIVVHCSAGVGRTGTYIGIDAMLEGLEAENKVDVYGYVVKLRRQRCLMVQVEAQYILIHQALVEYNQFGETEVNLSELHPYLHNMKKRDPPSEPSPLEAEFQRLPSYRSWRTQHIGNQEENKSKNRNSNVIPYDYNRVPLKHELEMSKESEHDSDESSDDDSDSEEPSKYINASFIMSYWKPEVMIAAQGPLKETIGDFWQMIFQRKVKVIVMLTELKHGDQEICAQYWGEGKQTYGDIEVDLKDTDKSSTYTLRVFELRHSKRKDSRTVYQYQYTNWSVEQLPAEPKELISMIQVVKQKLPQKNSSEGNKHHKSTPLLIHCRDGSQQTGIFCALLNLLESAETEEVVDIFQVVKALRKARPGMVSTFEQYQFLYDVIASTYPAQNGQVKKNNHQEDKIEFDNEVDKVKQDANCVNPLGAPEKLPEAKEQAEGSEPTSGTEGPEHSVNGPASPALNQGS

[4] = molecular target: T4, M-phase inducer phosphatase 3 (Homo sapiens, UniProt P30307); test: Inhibition of Cell division cycle 25 (Cdc25) phosphatase
T4 sequence (P30307 whole entry): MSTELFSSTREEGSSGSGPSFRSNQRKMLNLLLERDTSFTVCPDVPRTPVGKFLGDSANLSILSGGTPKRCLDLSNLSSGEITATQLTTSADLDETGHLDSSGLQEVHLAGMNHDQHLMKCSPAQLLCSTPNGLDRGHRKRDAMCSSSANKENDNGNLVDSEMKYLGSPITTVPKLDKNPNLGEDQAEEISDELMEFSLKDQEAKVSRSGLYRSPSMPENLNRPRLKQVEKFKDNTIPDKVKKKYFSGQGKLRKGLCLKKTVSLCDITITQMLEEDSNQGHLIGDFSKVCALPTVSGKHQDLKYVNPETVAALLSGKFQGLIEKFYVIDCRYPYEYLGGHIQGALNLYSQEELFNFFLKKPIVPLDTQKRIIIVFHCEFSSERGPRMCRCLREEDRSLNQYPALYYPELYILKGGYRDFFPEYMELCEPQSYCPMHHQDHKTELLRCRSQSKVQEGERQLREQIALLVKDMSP

[5] = Inhibition of LAR (leukocyte common antigen-related) phosphatase
[6] = Inhibition of SHP-2 phosphatase

Row | SMILES | Ki [1] | Ki [2] | other results
1 | CCc1cc(CC(NC(C)=O)C(=O)NCCCCC(=O)N[C@@H](CCCCN)C(=O)O)ccc1N(C(=O)C(=O)O)c1ccccc1C(=O)O (stereo not given in full) | 0.82 µM | 0.71 µM | 
2 | CCc1cc(CC(NC(C)=O)C(=O)NCCCCC(=O)NCCc2ccccc2)ccc1N(C(=O)C(=O)O)c1ccccc1C(=O)O (stereo not given) | 1.4 µM | 3.4 µM | 
3 | CCc1cc(CC(NC(C)=O)C(=O)NCCCCC(=O)N[C@H](C(=O)O)C(C)CC)ccc1N(C(=O)C(=O)O)c1ccccc1C(=O)O (stereo not given in full) | 0.4 µM | 0.43 µM | 
4 | CCc1cc(CC(NC(C)=O)C(=O)NCCCCC(=O)O)ccc1N(C(=O)C(=O)O)c1ccccc1C(=O)O (stereo not given) | 2.2 µM | 2.5 µM | 
5 | CCc1cc(CC(NC(C)=O)C(=O)NCCCCC(=O)N[C@@H](CCC(N)=O)C(=O)O)ccc1N(C(=O)C(=O)O)c1ccccc1C(=O)O (stereo not given in full) | 0.27 µM | 0.33 µM | 
6 | CCc1cc(CC(NC(C)=O)C(=O)NCCCCC(=O)N[C@@H](CCSC)C(=O)O)ccc1N(C(=O)C(=O)O)c1ccccc1C(=O)O (stereo not given in full) |  |  | Ki [3]: > 300 µM; Ki [4]: > 300 µM; Ki [5]: 8.75 µM; Ki [6]: 73.2 µM
7 | CCc1cc(CC(NC(C)=O)C(=O)NCCCCC(=O)N[C@@H](Cc2ccccc2)C(=O)O)ccc1N(C(=O)C(=O)O)c1ccccc1C(=O)O (stereo not given in full) | 0.16 µM | 0.14 µM | 
8 | CCc1cc(CC(NC(C)=O)C(=O)NCc2ccc(Cl)cc2)ccc1N(C(=O)C(=O)O)c1ccccc1C(=O)O (stereo not given) | 1.5 µM | 1.2 µM | 
9 | CCSCC[C@H](NC(=O)CCCCNC(=O)C(Cc1ccc(N(C(=O)C(=O)O)c2ccccc2C(=O)O)c(CC)c1)NC(C)=O)C(=O)O (stereo not given in full) | 0.51 µM | 0.13 µM | 
10 | CCc1cc(CC(NC(C)=O)C(=O)NCCCCC(=O)N[C@H](CCSC)C(=O)O)ccc1N(C(=O)C(=O)O)c1ccccc1C(=O)O (stereo not given in full) |  | 1.7 µM | 
11 | CCc1cc(CC(NC(C)=O)C(=O)NCCCCC(=O)N[C@@H](CCSC)C(=O)OC)ccc1N(C(=O)C(=O)O)c1ccccc1C(=O)O (stereo not given in full) | 0.67 µM | 0.54 µM | 

The remaining molecules from weak to strong by Ki [2], led by results:

Row | Ki [1] | Ki [2] | SMILES | other results
12 | 3.6 µM | 4.7 µM | CCc1cc(CC(NC(C)=O)C(=O)NCc2ccc(OC)cc2)ccc1N(C(=O)C(=O)O)c1ccccc1C(=O)O (stereo not given) | 
13 | 0.7 µM | 1.3 µM | CCc1cc(CC(NC(C)=O)C(=O)NCCCCC(=O)NC(Cc2ccccc2)C(N)=O)ccc1N(C(=O)C(=O)O)c1ccccc1C(=O)O (stereo not given) | 
14 | 0.45 µM | 0.54 µM | CCc1cc(CC(NC(C)=O)C(=O)NCc2ccc([N+](=O)[O-])cc2)ccc1N(C(=O)C(=O)O)c1ccccc1C(=O)O (stereo not given) | 
15 | 0.37 µM | 0.47 µM | CCc1cc(CC(NC(C)=O)C(=O)NCCCCC(=O)N[C@@H](CCS(C)(=O)=O)C(=O)O)ccc1N(C(=O)C(=O)O)c1ccccc1C(=O)O (stereo not given in full) | 
16 | 0.29 µM | 0.25 µM | CCc1cc(CC(NC(C)=O)C(=O)NCCCCC(=O)N[C@H](C(=O)O)C2CCCCC2)ccc1N(C(=O)C(=O)O)c1ccccc1C(=O)O (stereo not given in full) | 
17 | 0.24 µM | 0.12 µM | CCCC[C@H](NC(=O)CCCCNC(=O)C(Cc1ccc(N(C(=O)C(=O)O)c2ccccc2C(=O)O)c(CC)c1)NC(C)=O)C(=O)O (stereo not given in full) | 

Reference: ChEMBL document CHEMBL1136518, “Potent, selective inhibitors of protein tyrosine phosphatase 1B” (Bioorg Med Chem Lett, 2003)
